Source: patent US9880171B2, “iASPP phosphorylation and metastatic potential” (LUDWIG INSTITUTE FOR CANCER RESEARCH LTD., priority 2012, dated 2018)

How the values were obtained:
[1] = system: WM278, Me300 and SK-MEL37 melanoma cell lines; test: p53-dependent apoptosis assay (subG1 DNA content, PI/FACS), Example 8; format: cell-based, human; details: 0.3 μM K00616a, 20 μM nutlin3, 1 μM PLX4032, agent alone, 72 hours
Method: Cells were transfected with siRNA as shown and pre-seeded on 6 well plates ON, 0.3 μM cyclin B1/cdk1 inhibitors K00616a were then added for 48 hours to block iASPP modification. Cells were then treated with 0.3 μM K00616a, 20 μM nutlin3, or combinations of these drugs for another 72 hours. Cells were collected and cell cycle status, growth potential, and protein expression pattern were then determined by PI staining/FACS analysis, colony formation assay, and WB, respectively. […] Cells were pre-seeded on 6 well plates for overnight, 0.3 μM cyclin B1/cdk1 inhibitors K00616a were then added for 48 hours to block iASPP modification. Cells were then treated with 0.3 μM K00616a, 20 μM nutlin3, 1 μM PLX4032, or combinations of these drug for another 72 hours. Cells were collected and cell cycle status, growth potential, and protein expression pattern were then determined by PI staining/FACS analysis, colony formation assay, and WB, respectively.
Cells were harvested, washed and fixed in ice-cold 70% EtOH. […] After 30 min RT incubation cells were analyzed by flow cytometry.
WM278 and Me300 also express wild type p53, whereas SK-MEL37 expresses mutant p53. […] Wild type p53 function was measured by a p53-dependent apoptosis assay, detecting the percentage of cells containing subG1 DNA content and growth suppression in a clonogenic survival assay.

iASPP(-/-)MEFs = test: apoptosis markers (c-PARP, c-Caspase 3) in Ras and E1A transformed iASPP(-/-) MEFs; format: cell-based, mouse; details: vector transfected iASPP(-/-)MEFs, 24 hours
Method: FIG. 9. […] A. iASPP S84D/S113D binds p53 better than WT iASPP in vitro. in vitro translated iASPP-V5 (WT) or its mutant iASPP(S84D/S113D) (S84D/S113D) (Input) were incubated with nickel beads that were pre-bound with either p53(2-193)-His (p53) or BSA (BSA) to carry out an immunoprecipitation assay (IP). The amount of iASPP that was co-immunoprecipitated with p53 was detected by an anti-V5 antibody (iASPP V5 panel) whereas the amount of p53 immunoprecipitated was detected by an anti-His antibody (p53(2-193)-His panel). B iASPP S84D/S113D binds p53 better than WT iASPP in transfected cells. iASPP-V5 (WT) or its mutant iASPP(S84D/S113D) (S84D/S113D) and p53 were co-transfected in H1299 cells (Input). […] The amount of p53 pulled down is shown in (p53 panel) whereas p53 bound iASPP was determined by anti-V5 antibody (iASPP V5 panel). […] The expression levels of known apoptosis markers were detected in immunoblotting using D214 or D175 to detect cleaved PARP (c-PARP) or caspase 3 (c-caspase 3) respectively. […] Cells were dissolved in urea buffer and apoptosis markers (cleaved PARP, caspase-3) were determined by WB.
The anti-apoptotic function of iASPP and its mutant iASPP(S84D/S113D) was tested in Ras and E1A transformed iASPP(−/−)MEFs (referred to as iASPP(−/−)MEFs). […] Apoptosis was measured by the presence of cleaved PARP (c-PARP) or active caspase 3 (c-Caspase 3). […]

[2] = system: iASPP modification in H1299 cells; test: nocodazole-induced iASPP modification in H1299 cells, G2/M kinase inhibitor panel (immunoblotting); format: cell-based, human; details: panel of 15 G2/M kinase inhibitors, 2-10 μM, 10 μM nocodazole overnight
Method: FIG. 12. […] FIG. 12A. […] FIG. 12B. […] FIG. 12C.
FIG. 13. FIG. 13A. […] FIG. 13B.
FIG. 20. […] FIG. 20A. […] Bar=20 μm.
For WB, cells were lysed in buffer containing 8 M urea, 1 M thiourea, 0.5% CHAPS, 50 mM DTT, and 24 mM spermine. A total of 40 μg of protein extract was loaded per lane into SDS-polyacrylamide gels. Gels were transferred onto nitrocellulose membrane (Protran) and the resulting blots incubated first with primary antibody overnight at 4° C. and then with the appropriate secondary horseradish peroxidize-conjugated antibody (Dako). The results were visualized by enhanced chemiluminescent detection (Amersham Biosciences) using X-ray film (Fujifilm).

B16 melanoma cells = test: apoptosis by Sub-G1 FACS analysis, Example 10, B16 cells; format: cell-based, mouse
Method: FIG. 20. Restoring p53 by inhibiting mdm2 and iASPP suppresses melanoma growth in vitro and in vivo. FIG. 20A. H1299 cells were treated with DMSO or 10 μM nocodazole in the presence or absence of 2 or 10 μM of mitosis-related kinase inhibitors as indicated. […] FIG. 20B. Left panel: representative p53 level after Nutlin3 treatment for 24 hours in a variety of cells. Right bar graphs show the sub-G1 proportion of WM278 after treatment as that described in FIG. 19B (in upper panel, 10 μM and 20 μM Nutlin3 were used in parallel for comparison). From left to right of the upper right bar graph of FIG. 20B, the bars correspond to DMSO, Nut and JNJ+Nut, respectively. From left to right of the bottom bar graph of FIG. 20B, the bars correspond to DMSO, JNJ, Nut and JNJ+Nut, respectively. FIG. 20C. Me300, SK-MEL37, and B16 cells were treated as above (For B16 panel, 10 μM Nutlin3 was used) and sub-G1 proportion was analyzed. In (B) and (C), the bar graphs (mean±SD) were derived from three independent experiments. *p<0.05. FIG. 20D. Left panel: untreated B16 cells were subcutaneously injected into mice at day 1. […] Compound administration and tumor size measurement were repeated every two days from day 7 onwards. Bar graphs are shown as mean±SD (*p<0.05, n=6). FIG. 20E. […]
FIG. 22. […] Me300, SK-MEL37, and B16 cells were treated as described herein and sub-G1 cells were analyzed as described herein.

Row | SMILES | apoptotic cell death (subG1) [1] | apoptosis (increase in c-PARP and c-Caspase 3) (iASPP(-/-)MEFs) | prevention of nocodazole-induced iASPP modification [2] | increase in Nutlin3-induced apoptosis (B16 melanoma cells)
1 | COc1ccc(C2=N[C@@H](c3ccc(Cl)cc3)[C@@H](c3ccc(Cl)cc3)N2C(=O)N2CCNC(=O)C2)c(OC(C)C)c1 [Nutlin3] | very low rates of apoptotic cell death | apoptosis was detected | – | –
2 | Nc1nc(Nc2ccc(S(N)(=O)=O)cc2)nn1C(=O)c1c(F)cccc1F [JNJ-7706621] | – | – | most potent inhibitor of iASPP modification | 3-4 fold
